Key:
[1] = tested on: Chinese sprangletop; test: Test Example 3: herbicidal effect by foliage application, Wagner pot (Table 18, symbol D); assay type: in vivo, chinese sprangletop (Leptochloa chinensis)
How it was run: (§1)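 Plants were sown in alluvial soil held under 0.1–0.5 cm standing water and grown 14 days in a greenhouse at 25–30 °C. An emulsifiable formulation, water-diluted to the set dose, was then sprayed onto the foliage, and effects were scored three weeks later using previously defined criteria.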

[2] = tested on: lambsquarters; test: Test Example 5: herbicidal effect by foliage application, plastic box (Table 20, symbol O); assay type: in vivo, lambsquarters (Chenopodium album)
How it was run: (§2)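 Plants were sown into sterilized diluvial soil under about 1.5 cm cover and kept in a greenhouse at 25° C. to 30° C. Fourteen days on, foliage received an even spray of the diluted emulsion. Herbicidal or crop effect was judged three weeks afterwards.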

[3] = tested on: velvetleaf; test: Test Example 5: herbicidal effect by foliage application, plastic box (Table 20, symbol M); assay type: in vivo, velvetleaf (Abutilon theophrasti)
How it was run: as §2

[4] = tested on: barnyard grass; test: Test Example 5: herbicidal effect by foliage application, plastic box (Table 20, symbol H); assay type: in vivo, barnyard grass (Echinochloa crus-galli)
How it was run: as §2

[5] = tested on: persian speedwell; test: Test Example 5: herbicidal effect by foliage application, plastic box (Table 20, symbol R); assay type: in vivo, Persian speedwell (Veronica persica); settings: foliage application
How it was run: as §2

[6] = tested on: wild oat; test: Test Example 5: herbicidal effect by foliage application, plastic box (Table 20, symbol I); assay type: in vivo, wild oat (Avena fatua)
How it was run: as §2

[7] = tested on: chickweed; test: Test Example 5: herbicidal effect by foliage application, plastic box (Table 20, symbol P); assay type: in vivo, common chickweed (Stellaria media)
Excerpt: [Test Example 5] Herbicidal Effect Test by Foliage Application
Sterilized diluvial soil was placed in a plastic box having a length of 21 cm, a width of 13 cm, and a depth of 7 cm. The seeds of each of southern crabgrass, green foxtail, barnyard grass, wild oat, blackgrass, Italian ryegrass, windgrass, velvetleaf, redroot pigweed, lambsquarters, chickweed, false cleavers, persian speedwell, corn, soybean, rice, wheat, beet, and rapeseed were sowed in a spot-like manner and covered with the soil having a thickness of about 1.5 cm. Thereafter, the plants were grown in a greenhouse at 25° C. to 30° C. After 14-day growth of the plants, the emulsion agent of the compound of the present invention prepared according to Formulation Example 2 was diluted with water so as to achieve a predetermined herbicide amount, and the diluted emulsion agent was uniformly applied to a foliage part with a small-sized spray. Three weeks after the herbicide application, the effect of the herbicide on each plant was evaluated according to the criteria of Test Example 1.

[8] = tested on: green foxtail; test: Test Example 5: herbicidal effect by foliage application, plastic box (Table 20, symbol G); assay type: in vivo, green foxtail (Setaria viridis)
How it was run: as §2

[9] = tested on: rice flat sedge; test: Test Example 3: herbicidal effect by foliage application, Wagner pot (Table 18, symbol E); assay type: in vivo, rice flat sedge (Cyperus iria)
How it was run: as §1

[10] = tested on: southern crabgrass; test: Test Example 5: herbicidal effect by foliage application, plastic box (Table 20, symbol F); assay type: in vivo, southern crabgrass (Digitaria ciliaris)
How it was run: as §2

[11] = tested on: blackgrass; test: Test Example 5: herbicidal effect by foliage application, plastic box (Table 20, symbol J); assay type: in vivo, blackgrass (Alopecurus myosuroides)
How it was run: as §2

[12] = tested on: redroot pigweed; test: Test Example 5: herbicidal effect by foliage application, plastic box (Table 20, symbol N); assay type: in vivo, redroot pigweed (Amaranthus retroflexus)
How it was run: as §2

[13] = tested on: barnyard grass; test: Test Example 3: herbicidal effect by foliage application, Wagner pot (Table 18, symbol H); assay type: in vivo, barnyard grass (Echinochloa crus-galli)
How it was run: as §1

[14] = tested on: Italian ryegrass; test: Test Example 5: herbicidal effect by foliage application, plastic box (Table 20, symbol K); assay type: in vivo, Italian ryegrass (Lolium multiflorum)
How it was run: as §2

[15] = tested on: windgrass; test: Test Example 5: herbicidal effect by foliage application, plastic box (Table 20, symbol L); assay type: in vivo, windgrass (Apera spica-venti); settings: for L: windgrass, herbicidal effect: three weeks after application
How it was run: as §2

[16] = foliage application, 99 g/ha, three weeks after application
[17] = foliage application, AAH 320 g/ha, three weeks after application
[18] = foliage application, AAH 80 g/ha, three weeks after application
[19] = foliage application, 320 g/ha, evaluated three weeks after application
[20] = foliage application, AAH 320 g/ha, evaluated three weeks after application
[21] = amount of applied herbicide 320 g/ha
[22] = amount of applied herbicide 320 g/ha, foliage application after 14-day growth, evaluated three weeks after application

SMILES: COc1c(C)cccc1-c1sc2ccccc2c1-c1c(O)c(C)nn(C)c1=O [1-067]
- herbicidal effect on D (Chinese sprangletop), rating 0-5 ([1]; 99 g/ha): 0 (Herbicidal rate of 5% or less (almost no effect))
- herbicidal effect grade, O: lambsquarters [2, 16]: 0 (Herbicidal rate of 5% or less (almost no effect))
- herbicidal effect grade, M: velvetleaf [3, 16]: 2 (Herbicidal rate of 20% or more and less than 40%)
- herbicidal effect grade, H: barnyard grass [4, 16]: 0 (Herbicidal rate of 5% or less (almost no effect))
- herbicidal effect grade, R: persian speedwell ([5]; 99 g/ha, three weeks after application): 0 (Herbicidal rate of 5% or less (almost no effect))
- herbicidal effect grade, I: wild oat [6, 16]: 0 (Herbicidal rate of 5% or less (almost no effect))
- herbicidal effect grade, P: chickweed [7, 16]: 2 (Herbicidal rate of 20% or more and less than 40%)
- herbicidal effect grade, G: green foxtail [8, 16]: 0 (Herbicidal rate of 5% or less (almost no effect))
- herbicidal effect on E (rice flat sedge), rating 0-5 ([9]; 99 g/ha): 0 (Herbicidal rate of 5% or less (almost no effect))
- herbicidal effect grade, F: southern crabgrass [10, 16]: 0 (Herbicidal rate of 5% or less (almost no effect))
- herbicidal effect grade, J: blackgrass [11, 16]: 0 (Herbicidal rate of 5% or less (almost no effect))
- herbicidal effect grade, N: redroot pigweed [12, 16]: 1 (Herbicidal rate of 5% or more and less than 20%)
- herbicidal effect on H (barnyard grass), rating 0-5 ([13]; 99 g/ha): 3 (Herbicidal rate of 40% or more and less than 70%)
- herbicidal effect grade, K: Italian ryegrass [14, 16]: 0 (Herbicidal rate of 5% or less (almost no effect))

SMILES: Cc1nn(C)c(=O)c(-c2c(-c3ccc(OCC(=O)NCC(F)(F)F)cc3)sc3ccccc23)c1O [1-145]
- O: lambsquarters, herbicidal effect [2, 17]: 0 (Herbicidal rate of 5% or less (almost no effect))
- M: velvetleaf, herbicidal effect [3, 17]: 0 (Herbicidal rate of 5% or less (almost no effect))
- H: barnyard grass, herbicidal effect [4, 17]: 0 (Herbicidal rate of 5% or less (almost no effect))
- R: persian speedwell, herbicidal effect ([5]; AAH 320 g/ha, three weeks after application): 0 (Herbicidal rate of 5% or less (almost no effect))
- I: wild oat, herbicidal effect [6, 17]: 0 (Herbicidal rate of 5% or less (almost no effect))
- P: chickweed, herbicidal effect [7, 17]: 3 (Herbicidal rate of 40% or more and less than 70%)
- G: green foxtail, herbicidal effect [8, 17]: 0 (Herbicidal rate of 5% or less (almost no effect))
- L: windgrass, herbicidal effect ([15]; foliage application, AAH 320 g/ha): 0 (Herbicidal rate of 5% or less (almost no effect))
- F: southern crabgrass, herbicidal effect [10, 17]: 0 (Herbicidal rate of 5% or less (almost no effect))
- J: blackgrass, herbicidal effect [11, 17]: 0 (Herbicidal rate of 5% or less (almost no effect))
- N: redroot pigweed, herbicidal effect [12, 17]: 0 (Herbicidal rate of 5% or less (almost no effect))
- K: Italian ryegrass, herbicidal effect [14, 17]: 0 (Herbicidal rate of 5% or less (almost no effect))

SMILES: COc1cc(OC)cc(-c2sc3ccccc3c2-c2c(O)c(OC)nn(C)c2=O)c1 [1-184]
- O: lambsquarters, herbicidal effect [2, 18]: 0 (Herbicidal rate of 5% or less (almost no effect))
- M: velvetleaf, herbicidal effect [3, 18]: 0 (Herbicidal rate of 5% or less (almost no effect))
- H: barnyard grass, herbicidal effect [4, 18]: 0 (Herbicidal rate of 5% or less (almost no effect))
- R: persian speedwell, herbicidal effect ([5]; AAH 80 g/ha, three weeks after application): 0 (Herbicidal rate of 5% or less (almost no effect))
- I: wild oat, herbicidal effect [6, 18]: 0 (Herbicidal rate of 5% or less (almost no effect))
- P: chickweed, herbicidal effect [7, 18]: 4 (Herbicidal rate of 70% or more and less than 90%)
- G: green foxtail, herbicidal effect [8, 18]: 0 (Herbicidal rate of 5% or less (almost no effect))
- L: windgrass, herbicidal effect ([15]; foliage application, AAH 80 g/ha): 0 (Herbicidal rate of 5% or less (almost no effect))
- F: southern crabgrass, herbicidal effect [10, 18]: 0 (Herbicidal rate of 5% or less (almost no effect))
- J: blackgrass, herbicidal effect [11, 18]: 0 (Herbicidal rate of 5% or less (almost no effect))
- N: redroot pigweed, herbicidal effect [12, 18]: 0 (Herbicidal rate of 5% or less (almost no effect))
- K: Italian ryegrass, herbicidal effect [14, 18]: 0 (Herbicidal rate of 5% or less (almost no effect))

SMILES: CCCC(=O)Oc1c(C)nn(C)c(=O)c1-c1c(-c2ccccc2SC)sc2ccc(C)cc12 [2-143]
- herbicidal effect on O: lambsquarters (criteria 0-5) [2, 19]: 0 (Herbicidal rate of 5% or less (almost no effect))
- herbicidal effect on M: velvetleaf (criteria 0-5) [3, 19]: 0 (Herbicidal rate of 5% or less (almost no effect))
- herbicidal effect on H: barnyard grass (criteria 0-5) [4, 19]: 0 (Herbicidal rate of 5% or less (almost no effect))
- herbicidal effect on R: persian speedwell (criteria 0-5) ([5]; 320 g/ha, evaluated three weeks after application): 0 (Herbicidal rate of 5% or less (almost no effect))
- herbicidal effect on I: wild oat (criteria 0-5) [6, 19]: 0 (Herbicidal rate of 5% or less (almost no effect))
- herbicidal effect on P: chickweed (criteria 0-5) [7, 19]: 3 (Herbicidal rate of 40% or more and less than 70%)
- herbicidal effect on G: green foxtail (criteria 0-5) [8, 19]: 0 (Herbicidal rate of 5% or less (almost no effect))
- herbicidal effect on L: windgrass (criteria 0-5) [15, 19]: 0 (Herbicidal rate of 5% or less (almost no effect))
- herbicidal effect on F: southern crabgrass (criteria 0-5) [10, 19]: 0 (Herbicidal rate of 5% or less (almost no effect))
- herbicidal effect on J: blackgrass (criteria 0-5) [11, 19]: 0 (Herbicidal rate of 5% or less (almost no effect))
- herbicidal effect on N: redroot pigweed (criteria 0-5) [12, 19]: 0 (Herbicidal rate of 5% or less (almost no effect))
- herbicidal effect on K: Italian ryegrass (criteria 0-5) [14, 19]: 0 (Herbicidal rate of 5% or less (almost no effect))

SMILES: C=CCOc1c(C)nn(C)c(=O)c1-c1c(-c2ccc(OC(F)F)cc2)sc2ccc(F)cc12 [2-300]
- O: lambsquarters, herbicidal effect (criteria 0-5) [2, 20]: 5 (Herbicidal rate of 90% or more (almost completely withered))
- M: velvetleaf, herbicidal effect (criteria 0-5) [3, 20]: 1 (Herbicidal rate of 5% or more and less than 20%)
- H: barnyard grass, herbicidal effect (criteria 0-5) [4, 20]: 0 (Herbicidal rate of 5% or less (almost no effect))
- R: persian speedwell, herbicidal effect (criteria 0-5) ([5]; AAH 320 g/ha, evaluated three weeks after application): 5 (Herbicidal rate of 90% or more (almost completely withered))
- I: wild oat, herbicidal effect (criteria 0-5) [6, 20]: 0 (Herbicidal rate of 5% or less (almost no effect))
- P: chickweed, herbicidal effect (criteria 0-5) [7, 20]: 5 (Herbicidal rate of 90% or more (almost completely withered))
- G: green foxtail, herbicidal effect (criteria 0-5) [8, 20]: 0 (Herbicidal rate of 5% or less (almost no effect))
- herbicidal effect on E: rice flat sedge [9, 21]: 3 (Herbicidal rate of 40% or more and less than 70%)
- F: southern crabgrass, herbicidal effect (criteria 0-5) [10, 20]: 0 (Herbicidal rate of 5% or less (almost no effect))
- J: blackgrass, herbicidal effect (criteria 0-5) [11, 20]: 0 (Herbicidal rate of 5% or less (almost no effect))
- N: redroot pigweed, herbicidal effect (criteria 0-5) [12, 20]: 3 (Herbicidal rate of 40% or more and less than 70%)
- herbicidal effect on H: barnyard grass [13, 21]: 3 (Herbicidal rate of 40% or more and less than 70%)
- K: Italian ryegrass, herbicidal effect (criteria 0-5) [14, 20]: 0 (Herbicidal rate of 5% or less (almost no effect))

SMILES: CCCC(=O)Oc1c(C)nn(C)c(=O)c1-c1c(-c2ccccc2OCOC)sc2c(Cl)cccc12 [4-084]
- herbicidal effect on Chinese sprangletop (D) ([1]; 320 g/ha): 4 (Herbicidal rate of 70% or more and less than 90%)
- Herbicidal effect by foliage application, O: lambsquarters [2, 22]: 0 (Herbicidal rate of 5% or less (almost no effect))
- Herbicidal effect by foliage application, M: velvetleaf [3, 22]: 4 (Herbicidal rate of 70% or more and less than 90%)
- Herbicidal effect by foliage application, H: barnyard grass [4, 22]: 3 (Herbicidal rate of 40% or more and less than 70%)
- Herbicidal effect by foliage application, I: wild oat [6, 22]: 0 (Herbicidal rate of 5% or less (almost no effect))
- Herbicidal effect by foliage application, P: chickweed [7, 22]: 4 (Herbicidal rate of 70% or more and less than 90%)
- Herbicidal effect by foliage application, G: green foxtail [8, 22]: 2 (Herbicidal rate of 20% or more and less than 40%)
- herbicidal effect on rice flat sedge (E) ([9]; 320 g/ha): 4 (Herbicidal rate of 70% or more and less than 90%)
- Herbicidal effect by foliage application, L: windgrass [15, 22]: 0 (Herbicidal rate of 5% or less (almost no effect))
- Herbicidal effect by foliage application, F: southern crabgrass [10, 22]: 3 (Herbicidal rate of 40% or more and less than 70%)
- Herbicidal effect by foliage application, J: blackgrass [11, 22]: 0 (Herbicidal rate of 5% or less (almost no effect))
- Herbicidal effect by foliage application, N: redroot pigweed [12, 22]: 5 (Herbicidal rate of 90% or more (almost completely withered))
- herbicidal effect on barnyard grass (H) ([13]; 320 g/ha): 5 (Herbicidal rate of 90% or more (almost completely withered))
- Herbicidal effect by foliage application, K: Italian ryegrass [14, 22]: 0 (Herbicidal rate of 5% or less (almost no effect))

From patent US20230085307A1, “PYRIDAZINONE COMPOUND AND HERBICIDE” (NISSAN CHEMICAL CORPORATION, priority 2019, published 2023)
